Each molecule was assayed against T1, recombinant autotaxin (Homo sapiens, UniProt Q13822) (assay: Autotaxin assay (Amplex Red, LPC substrate)). Settings: 75 μM LPC, Amplex Red fluorescence, ten 1:3 dilutions starting at 30 μM.
T1 construct: made in house; host or cells: Hi5 insect cells (baculovirus)
Assay type: biochemical
Outline: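 Baculovirus (Hi5)-expressed autotaxin (16 ng) was preincubated with compound 30 min at 22° C., then reacted with 75 μM final egg LPC for 90 min at 37° C.; choline released was coupled via choline oxidase/peroxidase to Amplex Red, fluorescence read kinetically (ex 485/em 612 nm). IC50 from 10-point 1:3 dilutions from 30 μM, duplicates, normalized to 500 μM C14 LPA as 0%.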

IC50	SMILES
< 5 µM	O=C(NCc1cccnc1)C1CCN(c2nccc3nc(NCc4ccccc4Cl)ncc23)CC1 [Compound 62, 1-[2-(2-Chloro-benzylamino)-pyrido[4,3-d]pyrimidin-5-yl]-piperidine-4-carboxylic acid (pyridin-3-ylmethyl)-amide]
< 30 µM	CC(C)CNc1nccc2nc(NCc3ccc(F)cc3)ncc12 [Compound 30, N2-(4-Fluoro-benzyl)-N5-isobutyl-pyrido[4,3-d]pyrimidine-2,5-diamine]
< 30 µM	COc1ccc(CNc2ncc3c(Nc4cc(OC)ccc4OC)nccc3n2)cc1 [Compound 51, N5-(2,5-Dimethoxy-phenyl)-N2-(4-methoxy-benzyl)-pyrido[4,3-d]pyrimidine-2,5-diamine]
< 5 µM	O=C(c1ccco1)N1CCN(c2nccc3nc(NCc4ccccc4Cl)ncc23)CC1 [Compound 113, {4-[2-(2-Chloro-benzylamino)-pyrido[4,3-d]pyrimidin-5-yl]-piperazin-1-yl}-furan-2-yl-methanone]
< 5 µM	CC(C)NC(=O)C1CCCN(c2nccc3nc(NCc4ccccc4Cl)ncc23)C1 (stereo not drawn) [Compound 84, 1-[2-(2-Chloro-benzylamino)-pyrido[4,3-d]pyrimidin-5-yl]-piperidine-3-carboxylic acid isopropylamide]
< 30 µM	CC(=O)c1ccc(Nc2nccc3nc(NCc4ccccc4Cl)ncc23)cc1 [Compound 13, 1-{4-[2-(2-Chloro-benzylamino)-pyrido[4,3-d]pyrimidin-5-ylamino]-phenyl}-ethanone]
< 5 µM	O=C(C1CCN(c2nccc3nc(NCc4ccc(Cl)cc4)ncc23)CC1)N1CCCC1 [Compound 80, {1-[2-(4-Chloro-benzylamino)-pyrido[4,3-d]pyrimidin-5-yl]-piperidin-4-yl}-pyrrolidin-1-yl-methanone]
< 30 µM	COc1ccccc1CNc1ncc2c(N3CCCC3)nccc2n1 [Compound 31, (2-Methoxy-benzyl)-(5-pyrrolidin-1-yl-pyrido[4,3-d]pyrimidin-2-yl)-amine]
< 30 µM	COc1ccc(CNc2ncc3c(Nc4ccc(C#N)cc4)nccc3n2)cc1 [Compound 57, 4-[2-(4-Methoxy-benzylamino)-pyrido[4,3-d]pyrimidin-5-ylamino]-benzonitrile]
< 30 µM	Clc1ccc(CNc2ncc3c(Nc4ccc5c(c4)OCO5)nccc3n2)cc1 [Compound 46, N5-Benzo[1,3]dioxol-5-yl-N2-(4-chloro-benzyl)-pyrido[4,3-d]pyrimidine-2,5-diamine]
< 30 µM	C=CCNC(=O)C1CCN(c2nccc3nc(NCc4ccccc4Cl)ncc23)CC1 [Compound 71, 1-[2-(2-Chloro-benzylamino)-pyrido[4,3-d]pyrimidin-5-yl]-piperidine-4-carboxylic acid allylamide]
< 30 µM	COCCNC(=O)C1CCN(c2nccc3nc(NCc4ccccc4OC)ncc23)CC1 [Compound 75, 1-[2-(2-Methoxy-benzylamino)-pyrido[4,3-d]pyrimidin-5-yl]-piperidine-4-carboxylic acid (2-methoxy-ethyl)-amide]
< 30 µM	Fc1ccc(CNc2ncc3c(Nc4ccccc4F)nccc3n2)cc1 [Compound 24, N2-(4-Fluoro-benzyl)-N5-(2-fluoro-phenyl)-pyrido[4,3-d]pyrimidine-2,5-diamine]
< 10 µM	Clc1ccccc1CNc1ncc2c(N3CCN(c4nccs4)CC3)nccc2n1 [Compound 109, (2-Chloro-benzyl)-[5-(4-thiazol-2-yl-piperazin-1-yl)-pyrido[4,3-d]pyrimidin-2-yl]amine]
< 30 µM	COc1ccc(Nc2nccc3nc(NCc4ccccc4OC)ncc23)cc1 [Compound 35, N2-(2-Methoxy-benzyl)-N5-(4-methoxy-phenyl)-pyrido[4,3-d]pyrimidine-2,5-diamine]
< 30 µM	COc1ccc(Nc2nccc3nc(NCc4ccccc4Cl)ncc23)cc1OC [Compound 12, N2-(2-Chloro-benzyl)-N5-(3,4-dimethoxy-phenyl)-pyrido[4,3-d]pyrimidine-2,5-diamine]
< 5 µM	O=C(Cc1ccccn1)N1CCN(c2nccc3nc(NCc4ccccc4Cl)ncc23)CC1 [Compound 119, 1-{4-[2-(2-Chloro-benzylamino)-pyrido[4,3-d]pyrimidin-5-yl]-piperazin-1-yl}-2-pyridin-2-yl-ethanone]
< 30 µM	COc1ccccc1CNc1ncc2c(Nc3ccc(F)cc3C)nccc2n1 [Compound 41, N5-(4-Fluoro-2-methyl-phenyl)-N2-(2-methoxy-benzyl)-pyrido[4,3-d]pyrimidine-2,5-diamine]
< 10 µM	CCOCCCNC(=O)C1CCCN(c2nccc3nc(NCc4ccccc4Cl)ncc23)C1 (stereo not drawn) [Compound 88, 1-[2-(2-Chloro-benzylamino)-pyrido[4,3-d]pyrimidin-5-yl]-piperidine-3-carboxylic acid (3-ethoxy-propyl)-amide]
< 30 µM	COc1ccccc1CNc1ncc2c(Nc3ccc(F)cc3F)nccc2n1 [Compound 37, N5-(2,4-Difluoro-phenyl)-N2-(2-methoxy-benzyl)-pyrido[4,3-d]pyrimidine-2,5-diamine]

IC50	SMILES
< 30 µM	Fc1ccc(Nc2nccc3nc(NCc4ccccc4)ncc23)cc1 [Compound 2, N2-Benzyl-N5-(4-fluoro-phenyl)-pyrido[4,3-d]pyrimidine-2,5-diamine]
< 5 µM	O=C(O)C1CCN(c2nccc3nc(NCc4ccccc4Cl)ncc23)CC1 [Compound 127, 1-[2-(2-Chloro-benzylamino)-pyrido[4,3-d]pyrimidin-5-yl]-piperidine-4-carboxylic acid]
< 30 µM	CNC(=O)C1CCN(c2nccc3nc(NCc4ccccc4Cl)ncc23)CC1 [Compound 139, 1-[2-(2-Chloro-benzylamino)-pyrido[4,3-d]pyrimidin-5-yl]-piperidine-4-carboxylic acid methylamide]
< 30 µM	COc1ccc(Nc2nccc3nc(NCc4ccccc4)ncc23)cc1 [Compound 3, N2-Benzyl-N5-(4-methoxy-phenyl)-pyrido[4,3-d]pyrimidine-2,5-diamine]
< 30 µM	O=C(NCc1ccco1)N1CCN(c2nccc3nc(NCc4ccccc4Cl)ncc23)CC1 [Compound 117, 4-[2-(2-Chloro-benzylamino)-pyrido[4,3-d]pyrimidin-5-yl]-piperazine-1-carboxylic acid (furan-2-ylmethyl)-amide]
< 30 µM	Cc1cc(F)ccc1Nc1nccc2nc(NCc3ccccc3)ncc12 [Compound 7, N2-Benzyl-N5-(4-fluoro-2-methyl-phenyl)-pyrido[4,3-d]pyrimidine-2,5-diamine]
< 30 µM	COc1ccc(Nc2nccc3nc(NCc4ccc(F)cc4)ncc23)cc1 [Compound 23, N2-(4-Fluoro-benzyl)-N5-(4-methoxy-phenyl)-pyrido[4,3-d]pyrimidine-2,5-diamine]
< 5 µM	O=C(N1CCOCC1)N1CCN(c2nccc3nc(NCc4ccccc4Cl)ncc23)CC1 [Compound 116, {4-[2-(2-Chloro-benzylamino)-pyrido[4,3-d]pyrimidin-5-yl]-piperazin-1-yl}-morpholin-4-yl-methanone]
< 30 µM	Fc1ccc(Nc2nccc3nc(NCc4ccccc4)ncc23)c(F)c1 [Compound 4, N2-Benzyl-N5-(2,4-difluoro-phenyl)-pyrido[4,3-d]pyrimidine-2,5-diamine]
< 30 µM	COc1ccc(Nc2nccc3nc(NCc4ccccc4OC)ncc23)c(OC)c1 [Compound 40, N5-(2,4-Dimethoxy-phenyl)-N2-(2-methoxy-benzyl)-pyrido[4,3-d]pyrimidine-2,5-diamine]
< 30 µM	Cc1cc(NC(=O)C2CCCN(c3nccc4nc(NCc5ccccc5Cl)ncc34)C2)no1 (stereo not drawn) [Compound 87, 1-[2-(2-Chloro-benzylamino)-pyrido[4,3-d]pyrimidin-5-yl]-piperidine-3-carboxylic acid (5-methyl-isoxazol-3-yl)-amide]
< 30 µM	O=C(NCc1ccco1)C1CCCN(c2nccc3nc(NCc4ccccc4Cl)ncc23)C1 (stereo not drawn) [Compound 83, 1-[2-(2-Chloro-benzylamino)-pyrido[4,3-d]pyrimidin-5-yl]-piperidine-3-carboxylic acid (furan-2-ylmethyl)-amide]
< 5 µM	O=C(NCc1ccco1)C1CCN(c2nccc3nc(NCc4ccccc4Cl)ncc23)CC1 [Compound 65, 1-[2-(2-Chloro-benzylamino)-pyrido[4,3-d]pyrimidin-5-yl]-piperidine-4-carboxylic acid (furan-2-ylmethyl)-amide]
< 30 µM	CS(=O)(=O)CS(=O)(=O)N1CCN(c2nccc3nc(NCc4ccccc4Cl)ncc23)CC1 [Compound 156, (2-Chloro-benzyl)-[5-(4-methanesulfonylmethanesulfonyl-piperazin-1-yl)-pyrido[4,3-d]pyrimidin-2-yl]-amine]
< 30 µM	Clc1ccccc1CNc1ncc2c(NCCc3ccncc3)nccc2n1 [Compound 148, N2-(2-Chloro-benzyl)-N5-(2-pyridin-4-yl-ethyl)-pyrido[4,3-d]pyrimidine-2,5-diamine]
< 30 µM	Fc1ccc(Nc2nccc3nc(NCc4ccc(Cl)cc4)ncc23)cc1 [Compound 42, N2-(4-Chloro-benzyl)-N5-(4-fluoro-phenyl)-pyrido[4,3-d]pyrimidine-2,5-diamine]
< 30 µM	COc1ccccc1CNc1ncc2c(Nc3ccc(OC)c(OC)c3)nccc2n1 [Compound 38, N5-(3,4-Dimethoxy-phenyl)-N2-(2-methoxy-benzyl)-pyrido[4,3-d]pyrimidine-2,5-diamine]
< 5 µM	O=C(Nc1cccnc1)C1CCN(c2nccc3nc(NCc4ccc(Cl)cc4)ncc23)CC1 [Compound 78, 1-[2-(4-Chloro-benzylamino)-pyrido[4,3-d]pyrimidin-5-yl]-piperidine-4-carboxylic acid pyridin-3-ylamide]
< 30 µM	Fc1ccc(CNc2ncc3c(N4CCCC4)nccc3n2)cc1 [Compound 20, (4-Fluoro-benzyl)-(5-pyrrolidin-1-yl-pyrido[4,3-d]pyrimidin-2-yl)-amine]

From patent US8530650B2, “2, 5-diamino-substituted pyrido [4, 3-D] pyrimidines as autotaxin inhibitors against cancer” (MERCK PATENT GmbH, priority 2008, dated 2013)
